Measurements reported in ChEMBL document CHEMBL1148648, “Novel 1,3-disubstituted 8-(1-benzyl-1H-pyrazol-4-yl) xanthines: high affinity and selective A2B adenosine receptor antagonists” (J Med Chem, 2006).

Assays:
Adenosine receptor A1 = molecular target: T1, Adenosine receptor A1 (Homo sapiens, UniProt P30542); assay: Displacement of [3H]CPX from human adenosine A1 receptor expressed in CHO cells
T1 sequence (P30542 whole entry): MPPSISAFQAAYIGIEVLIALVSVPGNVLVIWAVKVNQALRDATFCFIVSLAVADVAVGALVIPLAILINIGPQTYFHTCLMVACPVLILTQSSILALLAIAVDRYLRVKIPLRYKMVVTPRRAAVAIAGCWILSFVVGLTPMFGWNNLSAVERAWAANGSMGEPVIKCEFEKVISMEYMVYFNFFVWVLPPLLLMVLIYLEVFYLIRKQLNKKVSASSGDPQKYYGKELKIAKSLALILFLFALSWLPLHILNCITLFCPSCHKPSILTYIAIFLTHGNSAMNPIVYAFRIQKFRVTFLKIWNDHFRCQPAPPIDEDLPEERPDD

Adenosine receptor A2b = molecular target: T2, Adenosine receptor A2b (Homo sapiens, UniProt P29275); assay: Displacement of [3H]ZM241385 from human adenosine A2b receptor expressed in HEK cells; format: cell-based, HEK293
T2 sequence (P29275 whole entry): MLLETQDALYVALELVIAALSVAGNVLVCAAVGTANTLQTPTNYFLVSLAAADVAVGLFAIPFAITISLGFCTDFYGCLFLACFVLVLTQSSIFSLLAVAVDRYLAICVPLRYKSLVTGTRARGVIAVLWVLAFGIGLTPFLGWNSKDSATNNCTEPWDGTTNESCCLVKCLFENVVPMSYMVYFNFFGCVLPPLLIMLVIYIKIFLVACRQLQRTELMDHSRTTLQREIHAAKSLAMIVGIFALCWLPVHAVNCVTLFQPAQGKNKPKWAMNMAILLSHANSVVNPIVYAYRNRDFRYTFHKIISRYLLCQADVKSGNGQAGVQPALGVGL

Adenosine receptor A2a = Adenosine receptor A2a (Homo sapiens, UniProt P29274); assay: Displacement of [3H]ZM-241385 from human adenosine A2a receptor expressed in HEK cells; format: cell-based, HEK293
[1] = molecular target: Adenosine receptors; A1 & A2b (Homo sapiens) (UniProt P30542+P29275); assay: Selectivity for human adenosine A2b receptor over adenosine A1 receptor; format: protein assay
[2] = molecular target: Adenosine A2 receptor (Homo sapiens) (UniProt P29275+P29274); assay: Selectivity for human adenosine A2b receptor over adenosine A2a receptor; format: protein assay

Sequence of Adenosine receptor A2a (P29274 whole entry): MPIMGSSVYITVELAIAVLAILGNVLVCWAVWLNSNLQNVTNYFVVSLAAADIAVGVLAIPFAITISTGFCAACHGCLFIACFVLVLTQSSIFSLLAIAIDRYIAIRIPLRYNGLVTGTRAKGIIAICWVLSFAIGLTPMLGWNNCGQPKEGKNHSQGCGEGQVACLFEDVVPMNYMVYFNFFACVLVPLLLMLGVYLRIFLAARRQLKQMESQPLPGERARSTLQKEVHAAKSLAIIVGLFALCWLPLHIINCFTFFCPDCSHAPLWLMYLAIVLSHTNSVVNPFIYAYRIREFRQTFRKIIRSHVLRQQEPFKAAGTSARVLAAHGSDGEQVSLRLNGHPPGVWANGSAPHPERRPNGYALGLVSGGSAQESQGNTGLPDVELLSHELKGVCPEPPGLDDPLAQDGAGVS

Row | Ki (Adenosine receptor A1) [µM] | Ki (Adenosine receptor A2b) [µM] | Ki (Adenosine receptor A2a) [µM] | Ratio Ki [1] | Ratio Ki [2] | SMILES
1 | 0.023 | 0.022 | 0.12 | – | – | CCCn1c(=O)c2[nH]c(-c3cnn(Cc4ccc(F)cc4)c3)nc2n(CCC)c1=O
2 | 0.46 | 0.027 | 0.2 | 17 | 7 | Cn1c(=O)c2[nH]c(-c3cnn(Cc4cccc(F)c4)c3)nc2n(C)c1=O
3 | – | – | – | 30 | 6 | CCn1c(=O)c2nc(-c3cnn(Cc4ccccc4)c3)[nH]c2n(CC)c1=O
4 | 0.017 | 0.074 | 0.57 | 0.2 | 7 | CCCn1c(=O)c2nc(-c3cnn(CCc4ccccc4)c3)[nH]c2n(CCC)c1=O
5 | 0.39 | 0.044 | 0.46 | – | – | CCCn1c(=O)c2[nH]c(-c3cnn(Cc4cccc(C)c4F)c3)nc2n(CCC)c1=O
6 | – | 4.8 | – | – | – | CCCn1c(=O)c2[nH]c(-c3cnn(Cc4cc(F)ccc4Cl)c3)nc2n(CCC)c1=O
7 | – | 0.36 | – | – | – | CCCn1c(=O)c2[nH]c(-c3cnn(Cc4cc(C(F)(F)F)cc(Cl)c4F)c3)nc2n(CCC)c1=O
8 | 0.034 | 0.034 | 0.07 | 1 | 2 | CCCn1c(=O)c2nc(-c3cnn(Cc4cccc(OC)c4)c3)[nH]c2n(CCC)c1=O
9 | 0.38 | 0.005 | 0.29 | 76 | 58 | CCn1c(=O)c2nc(-c3cnn(Cc4cccc(F)c4)c3)[nH]c2n(CC)c1=O
10 | 0.019 | 0.028 | 0.06 | – | – | CCCn1c(=O)c2[nH]c(-c3cnn(Cc4ccccc4F)c3)nc2n(CCC)c1=O
11 | – | – | – | 9 | 10 | CCCn1c(=O)c2nc(-c3cnn(Cc4cccc(C)c4F)c3)[nH]c2n(CCC)c1=O
12 | 0.041 | 0.02 | 0.15 | 2 | 7 | CCCn1c(=O)c2nc(-c3cnn(Cc4ccc(C(F)(F)F)cc4)c3)[nH]c2n(CCC)c1=O
13 | 0.19 | 0.029 | 0.07 | – | – | CCCn1c(=O)c2[nH]c(-c3cnn(Cc4cc(Cl)ccc4Cl)c3)nc2n(CCC)c1=O
14 | > 6 | 2.3 | 3.5 | 2 | 1 | Cn1c(=O)c2nc(-c3cnn(Cc4ccccc4)c3)[nH]c2n(C)c1=O
15 | 0.031 | 0.018 | 0.079 | 2 | 4 | CCCn1c(=O)c2nc(-c3cnn(Cc4cccc(Cl)c4)c3)[nH]c2n(CCC)c1=O
16 | 0.022 | 0.033 | 0.051 | – | – | CCCn1c(=O)c2[nH]c(-c3cnn(Cc4ccccc4C)c3)nc2n(CCC)c1=O
17 | – | – | – | 2 | 4 | CCCn1c(=O)c2nc(-c3cnn(Cc4ccccc4OC)c3)[nH]c2n(CCC)c1=O
18 | 1.4 | 0.98 | 0.89 | – | – | CCCCn1c(=O)c2[nH]c(-c3cnn(Cc4ccccc4)c3)nc2n(CCCC)c1=O
19 | – | > 6.6 | – | – | – | CCCn1c(=O)c2nc(-c3cnn(-c4ccccc4)c3C(F)(F)F)[nH]c2n(CCC)c1=O
20 | 0.17 | 0.035 | 0.28 | 7 | 8 | CCCn1c(=O)c2nc(-c3cnn(Cc4ccc(F)c(F)c4)c3)[nH]c2n(CCC)c1=O
21 | – | > 5.8 | – | – | – | CCCn1c(=O)c2c(nc(-n3cc(I)cn3)n2Cc2ccccc2)n(CCC)c1=O

Row | Ki (Adenosine receptor A1) [µM] | Ki (Adenosine receptor A2b) [µM] | Ki (Adenosine receptor A2a) [µM] | Ratio Ki [1] | Ratio Ki [2] | SMILES
22 | 42 | – | – | – | – | CCCn1c(=O)[nH]c(=O)c2[nH]cnc21 [ENPROFYLLINE]
23 | – | – | – | 10 | 14 | CC(C)Cn1c(=O)c2nc(-c3cnn(Cc4cccc(C(F)(F)F)c4)c3)[nH]c2n(CC(C)C)c1=O
24 | 0.044 | 0.037 | 0.23 | – | – | CCCn1c(=O)c2[nH]c(-c3cnn(Cc4ccccc4C(F)(F)F)c3)nc2n(CCC)c1=O
25 | – | 1.1 | – | – | – | CCCn1c(=O)c2nc(-c3ccnn3-c3ccccc3)[nH]c2n(CCC)c1=O
26 | – | – | – | 1 | 1 | CC(C)Cn1c(=O)c2nc(-c3cnn(Cc4cccc(F)c4)c3)[nH]c2n(CC(C)C)c1=O
27 | – | – | – | 1 | 2 | CCCn1c(=O)c2nc(-c3cnn(Cc4cccc(C)c4)c3)[nH]c2n(CCC)c1=O
28 | 0.059 | 0.037 | 0.14 | – | – | CCCn1c(=O)c2[nH]c(-c3cnn(Cc4ccccc4OC)c3)nc2n(CCC)c1=O
29 | – | – | – | 1 | 2 | CCCn1c(=O)c2nc(-c3cnn(Cc4ccc(C)cc4)c3)[nH]c2n(CCC)c1=O
30 | 0.059 | 0.02 | 0.049 | 3 | – | CCCn1c(=O)c2nc(-c3cnn(Cc4ccccc4Cl)c3)[nH]c2n(CCC)c1=O
31 | 0.77 | 0.31 | 0.56 | – | – | CCCn1c(=O)c2[nH]c(-c3cnn(-c4ccccc4)c3)nc2n(CCC)c1=O
32 | – | 3.7 | – | – | – | CCCn1c(=O)c2[nH]c(-c3cc(C)nn3C)nc2n(CCC)c1=O
33 | – | > 6.6 | – | – | – | CCCn1c(=O)c2[nH]c(-c3cnn(-c4ccc(Cl)cc4)c3C(F)(F)F)nc2n(CCC)c1=O
34 | 3.1 | 0.3 | 4.3 | – | – | CC(C)Cn1c(=O)c2[nH]c(-c3cnn(Cc4cccc(C(F)(F)F)c4)c3)nc2n(CC(C)C)c1=O
35 | – | 0.39 | – | – | – | CCCn1c(=O)c2nc(-c3cnn(Cc4c(F)cccc4F)c3)[nH]c2n(CCC)c1=O
36 | 0.62 | 1.25 | 1.1 | – | – | CC(C)Cn1c(=O)c2[nH]c(-c3cnn(Cc4ccccc4)c3)nc2n(CC(C)C)c1=O
37 | – | – | – | 0.6 | 2 | CCCn1c(=O)c2nc(-c3cnn(Cc4ccccc4F)c3)[nH]c2n(CCC)c1=O
38 | – | – | – | 6 | 2 | CCCn1c(=O)c2nc(-c3cnn(Cc4cc(Cl)ccc4Cl)c3)[nH]c2n(CCC)c1=O
39 | – | > 5.8 | – | – | – | CCCn1c(=O)c2nc(-n3cccn3)[nH]c2n(CCC)c1=O
40 | – | 0.7 | – | – | – | CCCn1c(=O)c2nc(-c3cnn(Cc4ccc(F)cc4F)c3)[nH]c2n(CCC)c1=O
41 | – | 0.41 | – | – | – | CCCn1c(=O)c2nc(-c3cnn(Cc4ccc(OC)c(C(F)(F)F)c4)c3)[nH]c2n(CCC)c1=O
42 | – | 0.65 | – | – | – | CCCn1c(=O)c2nc(-c3cnn(Cc4c(F)cc(F)cc4F)c3)[nH]c2n(CCC)c1=O

Row | Ki (Adenosine receptor A1) [µM] | Ki (Adenosine receptor A2b) [µM] | Ki (Adenosine receptor A2a) [µM] | Ratio Ki [1] | Ratio Ki [2] | SMILES
43 | – | 2.1 | – | – | – | CCCn1c(=O)c2nc(-c3cc(C)nn3CC)[nH]c2n(CCC)c1=O
44 | 0.58 | 0.019 | 0.12 | – | – | CCn1c(=O)c2[nH]c(-c3cnn(Cc4ccccc4)c3)nc2n(CC)c1=O
45 | 0.83 | 0.99 | 1.3 | – | – | CC(C)Cn1c(=O)c2[nH]c(-c3cnn(Cc4cccc(F)c4)c3)nc2n(CC(C)C)c1=O
46 | – | > 4.1 | – | – | – | CCCn1c(=O)c2nc(-c3cnn(-c4ccccc4)c3C)[nH]c2n(CCC)c1=O
47 | – | – | – | 0.5 | 1 | CC(C)Cn1c(=O)c2nc(-c3cnn(Cc4ccccc4)c3)[nH]c2n(CC(C)C)c1=O
48 | – | – | – | 2 | 2 | CCCn1c(=O)c2nc(-c3cnn(-c4ccccc4)c3)[nH]c2n(CCC)c1=O
49 | – | – | – | 1 | 6 | CCCn1c(=O)c2nc(-c3cnn(Cc4ccccc4C(F)(F)F)c3)[nH]c2n(CCC)c1=O
50 | – | – | – | 1 | 1 | CCCCn1c(=O)c2nc(-c3cnn(Cc4ccccc4)c3)[nH]c2n(CCCC)c1=O
51 | – | 0.2 | – | – | – | CCCn1c(=O)c2nc(-c3cnn(Cc4ccc(Cl)c(C(F)(F)F)c4)c3)[nH]c2n(CCC)c1=O
52 | – | – | – | 1 | 5 | CCCn1c(=O)c2nc(-c3cnn(Cc4ccc(F)cc4)c3)[nH]c2n(CCC)c1=O
53 | – | – | – | 0.6 | 2 | CCCn1c(=O)c2nc(-c3cnn(Cc4ccccc4C)c3)[nH]c2n(CCC)c1=O
54 | 0.048 | 0.036 | 0.066 | – | – | CCCn1c(=O)c2[nH]c(-c3cnn(Cc4cccc(C)c4)c3)nc2n(CCC)c1=O
55 | – | 0.64 | – | – | – | CCCn1c(=O)c2[nH]c(-c3cnn(Cc4ccc(F)c(C(F)(F)F)c4)c3)nc2n(CCC)c1=O
56 | – | – | – | 2 | 1 | CCCn1c(=O)c2nc(-c3cnn(Cc4ccc(OC)cc4)c3)[nH]c2n(CCC)c1=O
57 | – | 0.35 | – | – | – | CCCn1c(=O)c2[nH]c(-c3cnn(Cc4cc(C(F)(F)F)cc(C(F)(F)F)c4)c3)nc2n(CCC)c1=O
58 | 0.038 | 0.04 | 0.08 | – | – | CCCn1c(=O)c2[nH]c(-c3cnn(Cc4ccc(C)cc4)c3)nc2n(CCC)c1=O
59 | – | > 5.8 | – | – | – | CCCn1c(=O)c2c(nc(-n3cccn3)n2Cc2ccccc2)n(CCC)c1=O
60 | – | > 6.6 | – | – | – | CCCc1c(-c2nc3c([nH]2)c(=O)n(CCC)c(=O)n3CCC)cnn1-c1ccccc1
61 | – | 0.24 | – | – | – | CCCn1c(=O)c2[nH]c(-c3cnn(Cc4cccc(F)c4F)c3)nc2n(CCC)c1=O
62 | 0.07 | 0.037 | 0.061 | – | – | CCCn1c(=O)c2[nH]c(-c3cnn(Cc4ccc(OC)cc4)c3)nc2n(CCC)c1=O
